Measurements published in US4868176A, “Novel imidazobenzodiazepines” (Roussel Uclaf, priority 1987, dated 1989).

System: leptazol induced seizures in mice
Test: potentiation of the threshold of leptazol induced seizures in mice
Assay type: in vivo
Details: ip
Protocol: Potentiation of the threshold of leptazol induced seizures in mice by active compounds was measured by the method of Lichfiel et al (J. Pharmacol. Exp. Ther. (1949) Vol. 96 Page. 99).

CN1Cc2c(C(=O)C3CC3)ncn2-c2ccccc2C1=O [Compound 1, 3-(5,6-dihydro-5-methyl-6-oxo-4H-imidazo[1,5a][1,4]benzodiazepinyl)-cyclopropylmethanone]
ED50 (Mus musculus): 1 to 2 mg/kg

CN1Cc2c(C(=O)C3CC3)ncn2-c2ccc(Cl)cc2C1=O [Compound 2, (8-Chloro-5,6-dihydro-5-methyl-6-oxo-4H-imidazo[1,5-a][1,4]benzodiazepin-3-yl)-cyclopropylmethanone]
Leptazol Seizures ED50: Not active
